Data as given in ChEMBL document CHEMBL3507680, “University of Dundee, Gates Library screen for HepG2 cell viability”.

test: Human HepG2 cell viability assay in 384 well format; type: toxicity, cell-based; set-up: dose 125 nL, time 70.5 hour; concentration not given beside the values; conditions: HepG2 cells, read-out: Inhibition

SMILES	cytotoxicity at 70.5 h
Cc1cc(CNc2cc(-c3ccoc3C)nn2CCO)c(C)o1	-12.2%
COCCCN(Cc1ccncc1)C(=O)C1COc2ccccc2C1 (centres undefined)	-14.9%
COc1cc(NCCNC(=O)c2ccc3[nH]ccc3c2)cc(OC)c1	-13.8%
COc1cc(NCCNC(=O)c2cscc2C)cc(OC)c1	-2.4%
COCc1nnc(-c2cccc(C(=O)OC(C)C)c2)o1	-8.2%
CSC1(CNC(=O)N(C)Cc2sccc2C)CCOCC1	29.3%
Cc1nc(CN2CCCC2Cn2cccn2)nc2ccccc12 (centres undefined)	7.51%
O=C(c1cc(-c2ccccc2)nc2onc(C3CC3)c12)N1CC[C@H](O)C1	-11.3%
CCOc1ccc(CN(C)C(=O)c2nc(N3CCCC3)ncc2Cl)cc1	-8.28%
Cc1cc(CN(C)C(=O)CNS(=O)(=O)c2cccs2)no1	-6.5%
N#Cc1cccnc1NCc1cccnc1N1CCCCC1	4.49%
CCc1nc(NC(=O)Cc2csc(-c3nnc[nH]3)n2)sc1C	-11.9%
CC(C)c1nccn1CC1CCCN1Cc1nc2ccccc2n1C (centres undefined)	-10.4%
CCc1ccc(CCC(=O)N2CCC(=O)Nc3cccnc32)cc1	23.9%
CC(=O)NC1CCCN(c2nc3ccccc3cc2CO)C1 (centres undefined)	2.9%
Oc1ccc(Br)c(CNc2cccc(-c3nnc[nH]3)c2)c1	1.61%
CNC(=O)COC(=O)c1cccc(-n2ccc(C(F)(F)F)n2)c1	0.44%
CC(C)c1nc(CN(C)S(=O)(=O)c2cccs2)cs1	1.87%
CCOC(=O)NC1CCCN(c2cncc(Br)c2)C1 (centres undefined)	0.767%
CCCC(=O)NC1CCCN(c2nc3ccccc3cc2CO)C1 (centres undefined)	13.7%
CCc1nnc2n1CCN(C(=O)CCc1ccc3c(c1)OCO3)C2	-18.7%
NC(=O)Nc1ccc(C(=O)NCCn2cccc2)cc1	-11.7%
Cc1ccc(C(=O)N(CC2CCCO2)c2ccncc2)o1 (centres undefined)	-8.12%
CC1CCN(C(=O)c2ccc(N(C)Cc3cnn(C)c3)nc2)CC1	-7.81%

SMILES	cytotoxicity at 70.5 h
Cc1cc(C(=O)NC2=NCCS2)c(C)n1-c1ccccn1	-6.96%
CCc1n[nH]c(C2CN(C(=O)COCC(F)(F)F)CCO2)n1 (centres undefined)	-10.6%
CC1CCN(C(=O)NCCc2cc(F)ccc2F)C1 (centres undefined)	-11.9%
COc1ccc(C(=O)CCC(=O)NCc2ncc(C)s2)cc1F	-9.89%
Cc1cc(C)n(CC(=O)N(CC2CN(C)CCO2)c2nccs2)n1 (centres undefined)	-4.83%
Cc1cnn(CCC(=O)N(CC2CN(C)CCO2)c2nccs2)c1 (centres undefined)	-12.8%
CCc1nc(CN(C)CC(=O)NC(C)C)cs1	-13.3%
CCc1nc(CN(C)CC(=O)OC(C)(C)C)cs1	-4.57%
CCOC(=O)C1CCCN(Cc2cc(C#N)n(C)c2C)C1 (centres undefined)	-11.7%
Cc1cnn(CC(=O)N(CC2CN(C)CCO2)c2nccs2)c1 (centres undefined)	-14.4%
O=C(c1cccnc1)N(Cc1ccncc1)C1CC1	-4.09%
O=S(=O)(CCN1CCCC1Cn1cccn1)c1ccccc1 (centres undefined)	-13.8%
CCc1nc(CCNC(=O)NC2CC(=O)N(C(C)(C)C)C2)cs1 (centres undefined)	-5.26%
CS(=O)(=O)NC1CCN(C(=O)c2ccc(F)cc2)CC1	-3.98%
N#CCCN(CCC#N)C(=O)c1ccc(OCC2CC2)cc1	-7.55%
Cc1occc1C(=O)NCC(=O)NCCOc1ccc2c(c1)CCC2	-10.4%
NC(=O)CC1CCN(C(=O)c2csc(-c3ccccc3F)n2)CC1	-18.8%
CCN1CCN(CC(O)c2ccc(Br)cc2)CC1 (centres undefined)	-1.54%
c1ccc(C(c2ccccc2)N2CCN(CCn3cncn3)CC2)cc1	-10.4%
NC(=O)CC1CCN(CC(O)c2ccc(Br)cc2)CC1 (centres undefined)	-6.64%
Cc1cnn(C2CN(CC(=O)NCC3(c4ccccc4)CC3)C2)c1	-6.95%
Cc1cnn(C2CN(CC(=O)NCC3(c4ccccc4)CCC3)C2)c1	-2.82%
CC(=O)c1ccc(NC(=O)NC(C)c2ccc3c(c2)CC(=O)N3)cc1 (centres undefined)	2.82%
CCc1nsc(N2CCN(C(=O)COc3ccccc3)CC2)n1	-6.06%

SMILES	cytotoxicity at 70.5 h
O=C(NCC1(O)CCSCC1)c1ccoc1	-1.38%
CC(C)c1nc(C2CCCN2C(=O)c2ccc3nncn3c2)no1 (centres undefined)	2.23%
CCc1nsc(N2CCN(CC(=O)NCc3cccnc3)CC2)n1	-5.18%
COc1ccc(Cl)cc1NC(=O)CCNc1ccc(C#N)cn1	-6.33%
COc1cccc(C(O)CNC(=O)CC2CCCCC2)c1 (centres undefined)	-8.34%
COc1c(F)cc(NC(=O)NCc2nncn2C2CC2)cc1F	0.912%
O=C1CN(CCCNC(=O)Nc2ccccn2)CCN1	1.68%
CC(C)(C)NC(=O)CN1CCCN(Cc2cc(C#N)ccc2F)CC1	4.54%
Cc1nsc(N2CCN(CC(=O)NCc3ccc(F)cc3)CC2)n1	-0.931%
CN(Cc1cnn(C)c1)S(=O)(=O)N1CCCCC1	-5.36%
O=C1OCCN1CCN1CCCN(Cc2ccccc2F)CC1	-4.26%
CCc1nsc(N2CCCN(C(=O)COc3ccccc3)CC2)n1	-3.48%
COc1cccc(C(=O)NCc2ccccc2S(=O)(=O)N(C)C)c1	-4.93%
COc1cccc(C(=O)NCc2ccccc2S(=O)(=O)N(C)CCO)c1	-4.69%
COCCN1CCN(CC(O)c2cc(OC)ccc2OC)CC1 (centres undefined)	-6.61%
O=C(NCCSC1CCCC1)c1ccc(F)cc1F	-5.35%
NC(=O)N1CCCC(C(=O)NCc2ccccc2OC(F)(F)F)C1 (centres undefined)	-9.4%
CCc1ncncc1C(=O)NCCNC(=O)c1ccc(C)c(F)c1	-8.42%
COC(=O)CNc1cc(C(=O)NCC(F)(F)F)cc(F)c1C	-2.26%
COC(=O)CCNC(=O)c1ccc(NC(=O)N(C)CC(C)(C)C)cc1	-6.05%
O=C(CCc1ccccc1)N1CCN(C(=O)c2ccc[nH]2)CC1	-12.3%
N#Cc1ccc(N2CCCC2Cn2cncn2)nc1 (centres undefined)	-6.25%
CC(C)NC(=O)NCc1ccccc1NS(=O)(=O)c1ccccc1	12.7%
CC(C)c1nccn1C1CCCN(C(=O)c2ccn(C)c(=O)c2)C1 (centres undefined)	-4.13%

SMILES	cytotoxicity at 70.5 h
CN(CCCNS(=O)(=O)N1CCC2(CC1)OCCO2)c1ccccc1	22.7%
CN(CCc1ccccn1)Cc1nccn1Cc1ccccc1	11.8%
CCNC(=O)NC(=O)CNC(C)(CC)c1nccs1 (centres undefined)	-1.38%
CC(CC(=O)N1CCC(c2nnc3n2CCC3)CC1)n1cccc1 (centres undefined)	10.7%
CC(=O)c1c(F)cccc1NC1CCN(C(=O)C2CCCCC2)CC1	-2.39%
O=C(NCCSC1CCCC1)c1c(F)cccc1F	-6.07%
COc1ccc(CNC(=O)N2CCOCC2C2CC2)c(C)c1 (centres undefined)	-6.07%
CN(Cc1ccccc1OC(F)(F)F)C(=O)C1CC1	-7.05%
Cc1ccccc1-n1cnnc1SCC1CCCCO1 (centres undefined)	-9.11%
CCOC(=O)C1CCN(Cc2c(O)ccc3oc4c(c23)CCCC4)CC1	11.2%
Cc1nn(CN(CC(C)C)C2CC2)c(=O)c2noc(C)c12	14.5%
O=C(NCC(O)COc1ccccc1)C1(c2ccc(F)cc2)CC1 (centres undefined)	-10.3%
O=C(NCC(O)COc1cccc(F)c1)c1ccoc1 (centres undefined)	-13.2%
CC1COc2ccccc2N1C(=O)c1ccc(=O)n(C)c1 (centres undefined)	22.1%
CN(C)C(=O)C(C)(C)c1ccc2c(c1)OCCO2	-5.25%
O=S(=O)(NCCCN1CC=CC1)c1cncc(Cl)c1	29.6%
CC(C)(C)Cc1nnc(NCc2ccsc2)o1	28.5%
COc1ccnc(N2CCN(C(C)c3nc(C)no3)CC2)n1 (centres undefined)	4.57%
CCn1ncc2c1CCCC2NCc1csc(C(C)C)n1 (centres undefined)	0.0472%
CCCc1cc(N2CCCC2Cn2nc(C)nc2C)n2ncnc2n1 (centres undefined)	-0.261%
CCS(=O)(=O)NCC(=O)N1CC2(CCCC2)c2c(F)cccc21	-1.86%
COc1cc(F)ccc1N(C)Cc1ccncc1	-1.33%
COc1ccc(N(C(=O)Cc2ccc(C)nc2)C(C)C)cc1F	-5.23%
COc1ccc2cc(CN(C)C(C)c3nc(C(C)(C)C)no3)ccc2c1 (centres undefined)	-5.37%

SMILES	cytotoxicity at 70.5 h
Cc1cccc(C(=O)Nc2cccc3c2C(=O)NC3)n1	-5.67%
CC(C)NC(=O)CCNC(=O)c1cc(F)ccc1NS(C)(=O)=O	15.1%
CCOC(=O)c1nc(CN2CCC(NC(=O)C(C)C)CC2)cs1	-3.69%
Cc1ccc(NS(C)(=O)=O)c(C(=O)NCCC(=O)NC(C)C)c1	-6.46%
COc1ccc(N(C(=O)c2ccc(C)nc2)C(C)C)cc1F	15.8%
Cc1ccnc(N2CCC(NCCOc3ccccc3)CC2)n1	-4.28%
CC(C)(C)C(=O)NCC(=O)NC1CC(c2cccc(Cl)c2)C1 (centres undefined)	-1.37%
CS(=O)(=O)CCC(=O)NC1CC(c2cccc(Cl)c2)C1 (centres undefined)	14.6%
Cc1cc(NCC(=O)N(C)CC(F)(F)F)c(C(N)=O)cc1F	1.83%
O=C1CC(CNc2cncc(Cl)n2)c2ccccc2N1 (centres undefined)	-2.03%
Cc1ccc(N2CCCC(NC(=O)Cc3csc(C)n3)C2=O)cc1 (centres undefined)	-0.932%
Cc1cc(N2CCC(NCCOc3ccccc3)CC2)nc(C)n1	3.15%
O=C(Nc1ccccc1OC1CCOC1)c1ccon1 (centres undefined)	-1.12%
Cc1ncccc1C(=O)Nc1cccc2c1C(=O)NC2	-2.21%
COCCNC(=O)c1cc(F)ccc1NS(C)(=O)=O	-1.48%
CC(c1nc(C2CC2)no1)N(C)Cc1ccc(C#N)cc1 (centres undefined)	-1.86%
CCOCc1ccccc1NC(=O)NCC(C)(O)c1ccsc1 (centres undefined)	-2.17%
CCN(CC(=O)NC)C(=O)Cc1csc(C(C)C)n1	-1.76%
CCS(=O)(=O)c1ccc2c(c1)OCCCO2	0.078%
N#Cc1cccnc1NC1CCN(c2ccccc2OC(F)F)C1=O (centres undefined)	17.8%
CS(=O)(=O)CCN(CC1CCCO1)C1CCCC1 (centres undefined)	19.5%
CC(C)c1nnc2n1CCN(C(=O)c1ccc(OCC3CC3)nc1)C2	11%
COc1c(CNCC(O)COc2ccc3c(c2)OCO3)c(C)nn1C (centres undefined)	14.9%
